Results: ChEMBL document CHEMBL2380242, “Discovery of novel orally bioavailable GPR40 agonists” (Bioorg Med Chem Lett, 2013)
pEC50: −log10 of the molar value.

The compounds below were run against T1, Free fatty acid receptor 1 (Homo sapiens, UniProt O14842) (assay: Agonist activity at human GPR40 transfected in CHO cells by calcium flux assay relative to TAK-875).
Type: functional, cell-based

T1 sequence (O14842 whole entry): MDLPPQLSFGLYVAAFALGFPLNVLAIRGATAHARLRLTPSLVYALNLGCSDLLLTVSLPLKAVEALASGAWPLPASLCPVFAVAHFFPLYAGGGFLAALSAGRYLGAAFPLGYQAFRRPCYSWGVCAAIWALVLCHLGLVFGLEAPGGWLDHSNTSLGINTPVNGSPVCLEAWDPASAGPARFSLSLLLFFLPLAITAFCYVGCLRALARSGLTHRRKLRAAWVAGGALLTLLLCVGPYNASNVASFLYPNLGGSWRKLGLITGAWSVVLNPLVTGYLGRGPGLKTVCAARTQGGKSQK

Emax [%]	SMILES
68	Cc1cc(C)cc(-c2cccc(C3COc4cc5c(cc4O3)OC[C@H]5CC(=O)O)c2)c1 (stereo not given in full)
77	Cc1cc(F)ccc1-c1cccc(C2COc3cc4c(cc3O2)OC[C@H]4CC(=O)O)c1 (stereo not given in full)
105	O=C(O)C[C@@H]1COc2cc3c(cc21)OC[C@H](c1cccc(Br)c1)O3
102	CS(=O)(=O)CCCOc1ccc(-c2ccc(F)c(C3COc4cc5c(cc4O3)OC[C@H]5CC(=O)O)c2)c(Cl)c1 (stereo not given in full)
77	Cc1cc(OCCCS(C)(=O)=O)c(F)c(C)c1-c1cccc([C@H]2COc3cc4c(cc3O2)OC[C@H]4CC(=O)O)c1

These compounds were tested against T1, Free fatty acid receptor 1 (assay: Agonist activity at human GPR40 transfected in CHO cells by calcium flux assay).
Type: functional, cell-based

pEC50	SMILES
6.88	Cc1cc(C)cc(-c2cccc(C3COc4cc5c(cc4O3)OC[C@H]5CC(=O)O)c2)c1 (stereo not given in full)
7.44	Cc1cc(F)ccc1-c1cccc(C2COc3cc4c(cc3O2)OC[C@H]4CC(=O)O)c1 (stereo not given in full)
6.95	O=C(O)C[C@@H]1COc2cc3c(cc21)OC[C@H](c1cccc(Br)c1)O3
7.25	CS(=O)(=O)CCCOc1ccc(-c2ccc(F)c(C3COc4cc5c(cc4O3)OC[C@H]5CC(=O)O)c2)c(Cl)c1 (stereo not given in full)
6.92	Cc1cc(OCCCS(C)(=O)=O)c(F)c(C)c1-c1cccc([C@H]2COc3cc4c(cc3O2)OC[C@H]4CC(=O)O)c1
